Patent publication US8039510B2, “Methods of making and using theaflavin, theaflavin-3-gallate, theaflavin-3′-gallate and theaflavin 3,3′-digallate and mixtures thereof” (Nashai Biotech, LLC, priority 2001, dated 2011)

Test system: Male Sprague-Dawley rats
Test: Lipid profile of rats fed cholesterol diet plus theaflavins or catechin for eight weeks
Type: in vivo, rat
Conditions: for HDL / LDL / TC / TG: rat plasma, eight weeks; for reducing plasma levels of TC, LDL-C and TG, compared with catechin: rats
Description: Male Sprague-Dawley rats weighing 100 g to 130 g were divided into nine groups of ten rats. The animals were individually housed in stainless-steel cages with screen bottoms in a room maintained at between 22° C. and 24° C. They were fed stationary feedstuff and water as follows as described in Table 1. In addition the rats in Group TF1-1, TF1-2 or TF1-3 were fed pure theaflavin in a dosage of 1 mg/kg/day, 2 mg/kg/day and 4 mg/kg/day, respectively. The animals in group TF2A-2, TF2B-2 or RF3-2 were fed pure theaflavin-3-gallate, theaflavin-3′-gallate and theaflavin-3,3′-digallate, respectively in a dosage of 2 mg/kg/day. The animals in group CA-1 and CA-2 were fed catechins in a dosage of 1 mg/kg/day or 2 mg/kg/day, respectively.
The Sprague Dawley rats were fed the above diets for eight weeks before sampling. The rats were not fed for 12 hours prior to sampling. The rats were given either theaflavin, theaflavin-3-gallate, theaflavin-3′-gallate, theaflavin-3,3′-digallate or catechin one hour in advance of collecting the blood sample.

[1] = group TF1-3: 4 mg/kg/day per text (Table 1 prints 3)

O=C(O[C@@H]1Cc2c(O)cc(O)cc2O[C@@H]1c1cc(=O)c(O)c2c(O)c(O)cc([C@H]3Oc4cc(O)cc(O)c4C[C@H]3O)c2c1)c1cc(O)c(O)c(O)c1 [theaflavin-3-gallate]
HDL (2 mg/kg/day): 49.2 ± 1.9^3
LDL (2 mg/kg/day): 32.2 ± 3.7^1
TC (2 mg/kg/day): 97.3 ± 8.4^1
TG (2 mg/kg/day): 95.7 ± 10.5^1
reducing plasma levels of TC, LDL-C and TG, compared with catechin: more effective

O=c1c(O)cc([C@H]2Oc3cc(O)cc(O)c3C[C@H]2O)cc2c([C@H]3Oc4cc(O)cc(O)c4C[C@H]3O)cc(O)c(O)c12 [theaflavin]
HDL (1 mg/kg/day): 48.8 ± 1.7^3
LDL (1 mg/kg/day): 45.6 ± 3.1^1
TC (1 mg/kg/day): 116.3 ± 8.2^1
TG (1 mg/kg/day, mean ± spread): 108.1 ± 13.8^2
HDL (2 mg/kg/day): 49.2 ± 2.1^3
LDL (2 mg/kg/day): 34.6 ± 3.7^1
TC (2 mg/kg/day): 101.3 ± 7.9^1
TG (2 mg/kg/day): 97.4 ± 11.6^1
HDL [1]: 49.4 ± 1.9^3
LDL [1]: 25.3 ± 2.2^1
TC [1]: 90.8 ± 7.1^1
TG [1]: 87.7 ± 12.2^1
reducing plasma levels of TC, LDL-C and TG, compared with catechin: more effective

theaflavin-3,3′-digallate
HDL (2 mg/kg/day): 49.3 ± 1.9^3
LDL (2 mg/kg/day): 31.2 ± 4.1^1
TC (2 mg/kg/day): 95.5 ± 7.4^1
TG (2 mg/kg/day): 95.36 ± 9.2^1
reducing plasma levels of TC, LDL-C and TG, compared with catechin: more effective

theaflavin-3′-gallate
HDL (2 mg/kg/day): 49.3 ± 2.7^3
LDL (2 mg/kg/day): 32.4 ± 3.3^1
TC (2 mg/kg/day): 97.8 ± 8.5^1
TG (2 mg/kg/day): 96.2 ± 10.2^1
reducing plasma levels of TC, LDL-C and TG, compared with catechin: more effective
